Read-outs that look alike come from different tables or passages of the source. Non-standard residues stand in square brackets, D forms with d. Residues, ends and D or L forms follow the SMILES beside them. Sta = CC(C)C[C@H](N)[C@@H](O)CC(=O)O; N(iPr)Gly = CC(C)NCC(=O)O
Columns and labels:
Human liver cathepsin D [1] = target: T1, Human liver cathepsin D (Homo sapiens, UniProt P07339); experiment: Assay 2: cathepsin D inhibition activity (non-cellular fluorometric assay); format: biochemical; set-up: Human liver cathepsin D (Athens Research and Technology, Athens, GA); purchased Athens Research and Technology, Athens, GA
Method: (§1) A second non-cellular assay for determining in vitro aspartyl protease inhibitory activity utilizes a microtiter plate, where a suitable aspartyl protease, such as cathepsin D is added to each well together with controls. A suitable fluorometric substrate is added to each well. The resultant reaction mixture is allowed to react for a preselected time, e.g., 30 minutes. After enzyme activity is terminated, the substrate or its product may be determined fluorometrically and then the protease inhibition activity may be calculated based on the rates of substrate turnover. This assay is exemplified in Assay 2, below.
(§2) A fluorometric assay was adapted from the method disclosed by Murakami et al., (1981) Anal. Biochem. 110:232-239 for measuring renin activity. Human liver cathepsin D (Athens Research and Technology, Athens, GA) was diluted in assay buffer, 200mM NaOAc, pH 4.5, 150mM NaCl to 500 ng/mL and then 100 µL of this cathepsin D solution was added to each well of a 96 well plate with the exception of control wells which received just 100 µL of assay buffer. Compound stocks were prepared by dissolving an aspartyl protease inhibitor in DMSO for each concentration tested in the assay and then 5 µL of compound stock was added to each of the wells prepared above. Blank and enzyme control wells each received 5 µL of the DMSO vehicle.
(§3) Following a ten minute incubation at 25°C to allow enzyme/compound interaction, 5 µL of 500µM fluorometric substrate (Suc-Arg-Pro-Phe-His-Leu-Leu-Val-Try-AMC [SEQ ID NO:4], Bachem Biosciences, Philadelphia, PA) in DMSO was added per well to initiate the reaction. After incubation at 37°C for 30 minutes, cathepsin D activity was terminated by the addition of 100 µL per well of 400 mU/mL microsomal leucine aminopeptidase (EC 3.4.11.2, Sigma, St. Louis, MO) in 1M Tris-HCl, pH 8.0.
(§4) The plates were then analyzed in a fluorometer (CytoFluor 2350, Millipore, Bedford, MA) with an excitation wavelength of 360nm and an emission wavelength of 460nm, in order to check for background fluorescence due to test compounds. Following a two hour incubation at 37°C, to allow the aminopeptidase to release the fluorophore, 7-amido-4-methylcoumarin (AMC) from the products of cathepsin D cleavage, the plates were again analyzed in the fluorometer. In order to check for potential false positives, i.e., inhibitors of microsomal leucine aminopeptidase, residual aminopeptidase activity was monitored directly in each well by the addition of 20 µL/well of 2.5mM Leu-pNA (Bachem Biosciences, Philadelphia, PA) in 10% DMSO. Aminopeptidase activity was measured as an increase in the absorbance at 405nm in a UVmax microplate reader (Molecular Devices, Menlo Park, CA).
(§5) The compounds prepared in Examples 9, 12, 13, 20-23, 23A, 24, 30, 41-43, 45, and 48 were assayed at 10 µg/mL for cathepsin D inhibition activity using Assay 2. Cathepsin D activity was linear under these conditions and the results are expressed as percent inhibition of the control activity in Assay Table 2, below. All results presented are the mean and standard deviation of at least four replicate assays. Assay Table 2
Target sequence in this assay (P07339 169-412 limits assumed): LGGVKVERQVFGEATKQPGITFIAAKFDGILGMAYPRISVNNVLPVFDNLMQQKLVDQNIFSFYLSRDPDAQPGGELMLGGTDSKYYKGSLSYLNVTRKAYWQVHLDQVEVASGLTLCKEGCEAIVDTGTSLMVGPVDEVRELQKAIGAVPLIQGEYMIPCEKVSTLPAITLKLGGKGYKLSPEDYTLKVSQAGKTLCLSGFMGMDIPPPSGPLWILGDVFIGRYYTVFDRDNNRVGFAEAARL
Target sequence in this assay (P07339 65-162 limits assumed): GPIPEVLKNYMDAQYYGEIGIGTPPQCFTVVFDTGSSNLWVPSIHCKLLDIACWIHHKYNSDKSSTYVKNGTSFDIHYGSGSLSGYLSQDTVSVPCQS

Human liver cathepsin D [2] = target: T1, Human liver cathepsin D; experiment: as above; format: biochemical; set-up: Human liver cathepsin D (Athens Research and Technology, Athens, GA); purchased Athens Research and Technology, Athens, GA; host or cells: human liver (by the product's printed name)
Method: as §1, §2, §3, §4, §5
Target sequence in this assay (P07339 65-412): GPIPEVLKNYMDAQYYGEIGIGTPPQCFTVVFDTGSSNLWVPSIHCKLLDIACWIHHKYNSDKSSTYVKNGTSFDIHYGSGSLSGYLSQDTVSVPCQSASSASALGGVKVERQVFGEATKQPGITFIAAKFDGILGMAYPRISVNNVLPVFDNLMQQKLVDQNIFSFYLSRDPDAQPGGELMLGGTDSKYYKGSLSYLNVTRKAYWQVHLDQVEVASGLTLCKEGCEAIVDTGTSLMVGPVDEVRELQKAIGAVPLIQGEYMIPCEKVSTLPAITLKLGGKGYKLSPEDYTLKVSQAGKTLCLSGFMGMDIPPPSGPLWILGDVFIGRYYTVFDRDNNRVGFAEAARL

[3] = compound at 10 µg/mL, percent inhibition of control activity, mean and standard deviation of at least four replicate assays

SMILES | inhibition at 10 µg/mL (Human liver cathepsin D [2]) [%] | other results
Cc1ccc(C(=O)C2NCCc3ccccc32)cc1C(=O)N[C@@H](Cc1ccccc1)[C@H](O)CN1C[C@H]2CCCC[C@H]2C[C@H]1C(=O)NC(C)(C)C (relative stereo) [Example 30, [3S-(3R*,4aR*,8aR*,2'S*,3'R*)]-2-[2'-Hydroxy-3'-phenylmethyl-4'-aza-5'-oxo-5'-(3''-[1''',2''',3''',4'''-tetrahydroisoquinolin-1'''-ylcarbonyl]-6''-methyl)phenyl]pentyl-decahydroisoquinoline-3-N-t-butylcarboxamide] |  | Cathepsin D Inhibition (Human liver cathepsin D [1]; [3]): 69.2 ± 3.5%
Cc1cccc2ccc(C(=O)N[C@@H](CC(N)=O)C(=O)N[C@@H](Cc3ccccc3)[C@H](O)Cc3ccccc3C(=O)NC(C)(C)C)nc12 [Example 9, [1S-(1R*,4R*,5S*)]-N-(1-(2-Amino-2-oxoethyl)-2-oxo-3-aza-4-phenylmethyl-5-hydroxy-6-(2-(1-t-butylamino-1-oxomethyl)phenyl)hexyl)-8-methylquinolin-2-yl carboxamide] |  | inhibition at 10 µg/mL (Human liver cathepsin D [1]): 44.4 ± 1.9%
CC(C)C(NC(=O)C(Cc1cccc2ccccc12)NC(=O)OC(C)(C)C)C(=O)NC(Cc1ccccc1)C(O)Cc1ccccc1C(=O)NC(C)(C)C (stereo not drawn) [Example 23, [2R-(2R*,3S*,6S*,9S*)]-N-t-Butyl-2-[2-hydroxy-3-phenylmethyl-4,7-diaza-5,8-dioxo-6-(1-methylethyl)-9-N(t-butoxycarbonyl)amino-10-naphth-1-yl]decyl benzamide] |  | inhibition at 10 µg/mL (Human liver cathepsin D [1]; [3]): 96.3 ± 0.9%
CC(C)C(NC(=O)C(Cc1cccc2ccccc12)NC(=O)OC(C)(C)C)C(=O)NC(Cc1ccccc1)C(O)Cc1ccccc1C(=O)NC(C)(C)C (stereo not drawn) [Example 24, [2R-(2R*,3S*,6S*,9R*)]-N-t-Butyl-2-[2-hydroxy-3-phenylmethyl-4,7-diaza-5,8-dioxo-6-(1-methylethyl)-9-N(t-butoxycarbonyl)amino-10-naphth-1-yl]decyl benzamide] |  | Cathepsin D Inhibition (Human liver cathepsin D [1]; [3]): 92.7 ± 0.5%

More lines, main results first:

inhibition at 10 µg/mL (Human liver cathepsin D [2]) [%] | SMILES | other results
98.3 ± 0.1 | CC(=O)NCC(=O)N[C@H](C(=O)N[C@H](C(=O)N[C@@H](CC(C)C)[C@@H](O)CC(=O)N[C@@H](C)C(=O)N[C@H](C(=O)O)[C@@H](C)O)C(C)C)C(C)C [Example 41, CH3C(O)-Gly-Val-Val-Sta-Ala-Thr-OH] (Ac-GVV[Sta]AT-OH) | 
89.5 ± 1.3 | CC(C)C[C@H](NC(=O)[C@@H](NC(=O)[C@@H](NC(=O)CNC(C)C)C(C)C)C(C)C)[C@@H](O)CC(=O)N[C@@H](C)C(=O)N[C@H](C(=O)O)[C@@H](C)O [Example 42, (CH3)2CH-Gly-Val-Val-Sta-Ala-Thr-OH] (H-[N(iPr)Gly]VV[Sta]AT-OH) | 
87.9 ± 2.4 | CC(C)C[C@H](NC(=O)[C@@H](NC(=O)[C@@H](NC(=O)CN)C(C)C)C(C)C)[C@@H](O)CC(=O)N[C@@H](C)C(=O)N[C@H](C(=O)O)[C@@H](C)O [Example 43, Gly-Val-Val-Sta-Ala-Thr-OH] (H-GVV[Sta]AT-OH) | 
30.6 ± 4.8 | CC(C)C[C@H](NC(=O)[C@@H](NC(=O)CN)C(C)C)[C@@H](O)CC(=O)N[C@@H](C)C(=O)N[C@H](C(=O)O)[C@@H](C)O [Example 45, Gly-Val-Sta-Ala-Thr-OH] (H-GV[Sta]AT-OH) | 
79.9 ± 2.7 | CC[C@H](C)[C@H](NC(=O)C[C@H](O)[C@H](CC(C)C)NC(=O)[C@@H](NC(=O)CNC(C)C)C(C)C)C(=O)N[C@@H](C)C(=O)N[C@H](C(=O)O)[C@@H](C)O [Example 48, (CH3)2CH-Gly-Val-Sta-Ile-Ala-Thr-OH] (H-[N(iPr)Gly]V[Sta]IAT-OH) | 
